Values after ≈ are worked out from the molar mass of the structure shown. Where two headings read alike, the source gives them in different places.
How the values were obtained:
[1] = system: Staphylococcus aureus 209-P; experiment: therapeutic effect, treatment of animals infected by Staphylococcus (Table 3 A); assay type: in vivo, ICR-JCL mouse; settings: orally once, 10 LD50
Source text: Therapeutic effect of the 9-acyl-3"-thiomethoxymethyl-SF-837 substance against bacterial infections.
A. treatment of animals infected by Staphylococcus. Animals tested: ICR-JCL mouse, 4-week old, male, 10 heads for each group.
Bacterium inoculated: Staphylococcus aureus 209-P.
Method of administration: Samples were suspended in a sterilized 2% aqueous gum arabic solution and administered once to the mice inoculated with the bacterium.

[2] = system: Streptococcus pyrogenes Ti-125 Gr-A Type I; experiment: therapeutic effect, treatment of animals infected by Streptococcus (Table 3 B); assay type: in vivo, ICR-JCL mouse; settings: orally once, 5LD50
Description: B. treatment of animals infected by Streptococcus
Animals tested: The same as in A.
Method of administration: The same as in A.
Bacterium inoculated: Streptococcus pyrogenes Ti-125 Gr-A Type I.
Inoculum size: 1× 10^7 cells/0.5 ml/mouse(5LD50).

acute toxicity = assay type: in vivo, ICR-JCL mice; settings: intraperitoneal, male mice, dead/tested
Source text: The acute toxicity of the 9-acyl-3"-thiomethoxymethyl-SF-837 substance
Animals tested: ICR-JCL mice, male.
Samples: Each substance was suspended in a 5% aqueous arabic gum solution.
Method of administration: Intraperitoneal injection.

Escherichia coli = experiment: antimicrobial spectrum, minimal inhibitory concentration; assay type: cell-based
Source text: (§1) The antimicrobial spectrum of the 9-acyl-3"-thiomethoxymethyl-SF-837 substance obtained according to the present invention is shown in Table 1.
(§2) The antimicrobial spectrum of the 9-acetyl- and 9-propionyl-3"-thiomethoxymethyl-SF-837 substance made according to the invention.

Mycobacterium 607 = experiment: as above; assay type: cell-based
Source text: as §1, §2

[3] = system: Mycoplasma gallisepticum CH3T; experiment: as above; assay type: cell-based; settings: Mycoplasmoides gallisepticum
Source text: as §1, §2

[4] = system: Mycoplasma gallisepticum KP-13; experiment: as above; assay type: cell-based; settings: Mycoplasmoides gallisepticum, KP13
Source text: as §1, §2

[5] = system: Mycoplasma gallisepticum KP-3; experiment: as above; assay type: cell-based; settings: Mycoplasmoides gallisepticum, KP3
Source text: as §1, §2

[6] = system: Mycoplasma gallisepticum S-15P; experiment: as above; assay type: cell-based; settings: Mycoplasmoides gallisepticum, read-out: Minimal Inhibitory Concentration
Source text: as §1, §2

[7] = system: Mycoplasma gallisepticum S-35P; experiment: as above; assay type: cell-based; settings: Mycoplasmoides gallisepticum, read-out: Minimal Inhibitory Concentration
Source text: as §1, §2

[8] = system: Mycoplasma gallisepticum S-6; experiment: as above; assay type: cell-based; settings: Mycoplasmoides gallisepticum, S6
Source text: as §1, §2

[9] = system: Neisseria gonorrhoeae Megurita; experiment: as above; assay type: cell-based
Source text: as §1, §2

Neisseria meningitidis = experiment: as above; assay type: cell-based
Source text: as §1, §2

Staphylococcus aureus = experiment: as above; assay type: cell-based
Source text: as §1, §2

Vibrio coli 34E = experiment: as above; assay type: cell-based; settings: Campylobacter coli
Source text: as §1, §2

Vibrio coli SD-358 = experiment: as above; assay type: cell-based; settings: Campylobacter coli, SD358
Source text: as §1, §2

Vibrio coli SD-362 = experiment: as above; assay type: cell-based; settings: Campylobacter coli, SD362
Source text: as §1, §2

[10] = system: Mycoplasma gallisepticum T-4AT (tyrosine-resistant); experiment: microbe, parasite or virus in culture; assay type: cell-based; settings: Mycoplasmoides gallisepticum, read-out: Minimal Inhibitory Concentration
Source text: as §1, §2

[11] = system: Staphylococcus aureus Strain 209-P; experiment: therapeutic effect on staphylococcal infection of mice (Table 2); assay type: in vivo; settings: 350mg/Kg oral; intraperitoneal infection by Staphylococcus aureus 209-P
Source text: Since the 9-acyl-3"-thiomethoxymethyl-SF-837 substance is inhibitory against Gram-positive bacteria as the SF-837 substance is, it is as well available as an antimicrobial agent. Particularly, it is notable that the in vitro antimicrobial activity of the 9-acyl-3"-thiomethoxymethyl-SF-837 substance of the present invention against Escherichia coli, Mycobacterium, Mycoplasma, and macrolide-resistant Mycoplasma is higher than that of the SF-837 substance. Furthermore, the results of the therapeutic tests using the mice infected by Staphylococcus aureus Strain 209 P was better with the said 9-acyl-3"-thiomethoxymethyl-SF-837 substance than with its parent substance (see Table 2).
Therapeutic effect of the 9-acyl-3"thiomethoxy-methyl-SF-837 substance made according to the invention on the staphylococcal infection of mice in laboratory*).
*)Infection of mouse intraperitoneally by Staphylococcus aureus Strain

[12] = S15P, Mycoplasma gallisepticum S-15P
[13] = S35P, Mycoplasma gallisepticum S-35P

| SMILES | Survival rate ([1]; 150 mg/Kg) [%] | Survival rate ([1]; 200 mg/Kg) [%] | Survival rate ([1]; 350 mg/Kg) [%] | Survival rate ([1]; 400 mg/Kg) [%] | Survival rate ([2]; 100 mg/Kg) [%] | Survival rate ([2]; 200 mg/Kg) [%] | Survival rate ([2]; 300 mg/Kg) [%] | Survival rate ([2]; 400 mg/Kg) [%] | Mortality (acute toxicity; 2,000 mg/Kg) | Mortality (acute toxicity; 4,000 mg/Kg) | MIC (Escherichia coli) [µg/mL] | MIC (Mycobacterium 607) [µg/mL] | MIC [3] [µg/mL] | MIC [4] [µg/mL] | MIC [5] [µg/mL] | MIC [8] [µg/mL] | MIC [9] [µg/mL] | MIC (Neisseria meningitidis) [µg/mL] | MIC (Staphylococcus aureus) [µg/mL] | MIC (Vibrio coli 34E) [µg/mL] | also measured |
| --- | --- | --- | --- | --- | --- | --- | --- | --- | --- | --- | --- | --- | --- | --- | --- | --- | --- | --- | --- | --- | --- |
| CCC(=O)OC1CC(=O)OC(C)CC=CC=CC(OC(C)=O)C(C)CC(CC=O)C(OC2OC(C)C(OC3CC(C)(O)C(OC(=O)CC)C(C)O3)C(N(C)C)C2O)C1OC (stereo not shown) [9-Acetyl-SF-837, reference compound] | 80 | 100 | 100 | 100 | 100 | 100 | 100 | 100 | 0/3 | 1/3 | – | – | – | – | – | – | – | – | – | – | – |
| CCC(=O)OC1CC(=O)OC(C)CC=CC=CC(OC(C)=O)C(C)CC(CC=O)C(OC2OC(C)C(OC3CC(C)(OCSC)C(OC(=O)CC)C(C)O3)C(N(C)C)C2O)C1OC (stereo not shown) [9-acetyl-3"-thiomethoxymethyl-SF-837] | 30 | 80 | 90 | 100 | 100 | 100 | 100 | 100 | 0/3 | 0/3 | 50 (≈ 54.6 µM) | 6.25 (≈ 6.82 µM) | < 0.1 | < 0.1 | < 0.1 | < 0.1 | 100 (≈ 109 µM) | 6.25 (≈ 6.82 µM) | 0.78 (≈ 0.851 µM) | 25 (≈ 27.3 µM) | MIC [6, 12]: < 0.1 µg/mL; MIC [7, 13]: < 0.1 µg/mL; MIC (Vibrio coli SD-358): > 50 µg/mL; MIC (Vibrio coli SD-362): 25 µg/mL (≈ 27.3 µM); MIC [10]: 12.5 µg/mL (≈ 13.6 µM); Survival rate in a week after oral administration [11]: 90% |
| CCC(=O)OC1C=CC=CCC(C)OC(=O)CC(OC(=O)CC)C(OC)C(OC2OC(C)C(OC3CC(C)(OCSC)C(OC(=O)CC)C(C)O3)C(N(C)C)C2O)C(CC=O)CC1C (stereo not shown) [9-propionyl-3"-thiomethoxymethyl-SF-837] | 30 | 70 | 90 | 100 | 100 | 100 | 100 | 100 | 0/3 | 0/3 | 50 (≈ 53.8 µM) | 6.25 (≈ 6.72 µM) | < 0.1 | < 0.1 | < 0.1 | < 0.1 | 100 (≈ 108 µM) | 6.25 (≈ 6.72 µM) | 0.78 (≈ 0.839 µM) | 25 (≈ 26.9 µM) | MIC [6, 12]: < 0.1 µg/mL; MIC [7, 13]: < 0.1 µg/mL; MIC (Vibrio coli SD-358): > 50 µg/mL; MIC (Vibrio coli SD-362): 25 µg/mL (≈ 26.9 µM); MIC [10]: 12.5 µg/mL (≈ 13.4 µM); Survival rate in a week after oral administration [11]: 90% |
| CCC(=O)OC1CC(=O)OC(C)CC=CC=CC(O)C(C)CC(CC=O)C(OC2OC(C)C(OC3CC(C)(O)C(OC(=O)CC)C(C)O3)C(N(C)C)C2O)C1OC (stereo not shown) [SF-837] | 20 | 40 | 60 | 90 | 70 | 90 | 100 | 100 | 2/3 | 2/3 | 100 (≈ 123 µM) | 25 (≈ 30.7 µM) | < 0.05 | < 0.05 | < 0.05 | 0.1 (≈ 0.123 µM) | 25 (≈ 30.7 µM) | 6.25 (≈ 7.68 µM) | 0.78 (≈ 0.958 µM) | 12.5 (≈ 15.4 µM) | MIC [6]: 0.05 µg/mL (≈ 0.0614 µM); MIC [7]: 0.05 µg/mL (≈ 0.0614 µM); MIC (Vibrio coli SD-358): > 50 µg/mL; MIC (Vibrio coli SD-362): > 50 µg/mL; MIC [10]: > 100 µg/mL; Survival rate in a week after oral administration [11]: 37.5% |

Reference: patent US4029881A, “Antibiotic 9-acyl-3"-thiomethoxymethyl-SF-837 composition and process for preparing the same” (Meiji Seika Co., Ltd., priority 1972, dated 1977)
